A melting point compilation (Tetko et al.; mined from patent text by program, amines drawn as free bases though some values may be those of a salt)

Row | melting point [°C] | SMILES
1 | 130 to 131 | CCc1cn2ccccc2c1S(=O)(=O)c1ccc(OCCCn2ccnc2)cc1
2 | 180 to 184 | Cn1cc(C2=C(c3ccc4ccccc4c3)C(=O)NC2=O)c2ccccc21
3 | 143 | CC(C)(C)OC(=O)Nc1cc(CC#N)c(C#Cc2ccccc2)cc1N
4 | 153 to 154 | O=C1N=c2cccc(OCCN3CCC(Cc4ccccc4)CC3)c2=N1
5 | 60 to 62 | CC(C)c1noc2c1C(=O)N(C(C)(C)C)C2=O
6 | 172 to 175 | COc1cc2ncnc(N3CCC(C(=O)CN4C=CC(C)=NS4(=O)=O)CC3)c2cc1OC
7 | 129 to 130 | CCCCC[C@H]1CC[C@H](CSc2cc(O)c3c(c2N)C(=O)c2ccccc2C3=O)CC1
8 | 157 to 160 | Cc1cn(NCCCc2ccncc2F)c2ccc(O)cc12
9 | 155 to 156 | O=C(N[C@H]1CCCNC1=O)c1ccccc1C(F)(F)F
10 | 104 to 106 | COc1ccc(N2C(=O)C(O[Si](C(C)C)(C(C)C)C(C)C)C2C=Cc2ccco2)cc1 (stereo not drawn)
11 | 130 to 140 | C=Cc1c(CS)cnc(C)c1O
12 | 238 to 240 | Cc1ccc(-c2c3c(cc4ccc(O)cc24)-c2ccc(O)cc2CO3)cc1F
13 | 60 | CCN1CNS(=O)(=O)c2cc(Oc3cccc(C(C)O)c3)ccc21 (stereo not drawn)
14 | 157 to 159 | COc1ccc(S(=O)(=O)C(CC(=O)NO)c2ccccc2)cc1 (stereo not drawn)
15 | 130 to 131 | COCCOCOc1c(C(C)(C)C)cc(-c2ccc(C#N)c(C#N)c2)cc1C(C)(C)C
16 | 92 to 97 | CCOC(=O)CC[C@H](NC(=O)c1ccc(N)c(F)c1)C(=O)OCC
17 | 133 to 134 | CCOc1nn(Cc2cncc(OCc3nc(-c4ccccc4)oc3C)c2)cc1CCC(=O)O
18 | 65 to 67 | CNCc1ccc([C@H]2CC[C@H](OC(=O)Cc3ccc(Cl)cc3)CC2)cc1
19 | 172 to 173 | COCC(COC)Oc1cc(Oc2ccc(S(C)(=O)=O)nc2)cc2cc(C3=NCC(CC(N)=O)S3)[nH]c12 (stereo not drawn)

Row | melting point [°C] | SMILES
20 | 155 to 156 | CCCc1ccc(-c2ccc3c(c2)C=C(C(=O)OC)CCS3(=O)=O)cc1
21 | 112 to 118 | CC1(C)OC2OC(CN3C(=O)C4(COc5cc6c(cc54)OCCO6)c4ccccc43)C3OC(C)(C)OC3C2O1 (stereo not drawn)
22 | 110 to 112 | CN1CCN(CCCCCNc2ncc3cc(-c4c(Cl)cccc4Cl)c(=O)n(C)c3n2)CC1
23 | 116 to 118 | CC(C=CC1(O)C(C)=CC2(OCCO2)c2ccccc21)=CCO (stereo not drawn)
24 | 205 to 206 | CC1(C)C(=O)Nc2cc(C(=O)Nc3ccccc3)ccc21
25 | 105 to 107 | CC1(CN2CCN(C(=O)NCC=Cc3ccc(C(F)(F)F)cc3)CC2)Cn2cc([N+](=O)[O-])nc2O1 (stereo not drawn)
26 | 67 to 68 | COC(=O)CCCC=Cc1nn(-c2ccc(F)cc2)c2c1CCC2
27 | 132 | Cc1c(-c2cccc(F)c2)nc2n1CCc1ccccc1C2OC1CCN(C)CC1 (stereo not drawn)
28 | 245 to 247 | COc1ccc(Cl)cc1C1(O)C(=O)Nc2ccc(Br)cc21 (stereo not drawn)
29 | 162 to 164 | CC1CCc2c(ccc(F)c2-n2ccnc2)N1 (stereo not drawn)
30 | 140 to 142 | COc1ccc(S(=O)(=O)N2CCc3cccc(-c4ccc(F)nc4)c32)cc1
31 | 81 | CCOC(=O)C(=CN1c2ccc(F)c(F)c2OCC1COC)C(=O)OCC (stereo not drawn)
32 | 94 to 95 | CCc1cc(-c2ccc(OC)cc2)ccc1[N+](=O)[O-]
33 | 45 to 49 | COC(=O)C(C)NC(=O)C1CCCN1C(=O)OCc1ccccc1 (stereo not drawn)
34 | 178 to 181 | CC(C)(C)c1cc(C=C2CON(C(N)=O)C2=O)cc(C(C)(C)C)c1O
35 | 141 to 148 | N[C@@H](Cc1ccccc1)C(=O)N(CC1CC(Cl)=NO1)C(=O)OCc1ccccc1 (stereo partly drawn)
36 | 168 to 169 | C#CCn1nc(-c2ccc(F)cc2)c(-c2ccc(S(C)(=O)=O)cc2)cc1=O
37 | 220 to 230 | CCOC(=O)c1cnn(C)c1C(=O)Nc1ccn2nc(-c3ccnc(F)c3)nc2c1
38 | 147 | CC(C)(C)OC(=O)[C@@H]1CS[C@H](c2cccnc2)N1C(=O)CNC(=O)Nc1cccc(C(=O)O)c1
